Measurements taken from PubChem BioAssay (NCI).
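Following 48 hours of exposure in 96-well plates, responses at five concentrations were used to interpolate endpoints linearly. GI50 = concentration required for 50% inhibition of growth. TGI: total growth inhibition.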

How the values were obtained:
Experiment in all cases: NCI tumour cell line growth inhibition, 48 h
786-0 renal = system: 786-0 renal
ACHN renal = system: ACHN renal
CAKI-1 renal = system: CAKI-1 renal
CCRF-CEM leukemia = system: CCRF-CEM leukemia
COLO 205 colon = system: COLO 205 colon
DU-145 prostate = system: DU-145 prostate
EKVX NSCLC = system: EKVX NSCLC
HCT-116 colon = system: HCT-116 colon
HL-60(TB) leukemia = system: HL-60(TB) leukemia
HOP-62 NSCLC = system: HOP-62 NSCLC
HOP-92 NSCLC = system: HOP-92 NSCLC
HS 578T breast = system: HS 578T breast
IGROV1 ovarian = system: IGROV1 ovarian
K-562 leukemia = system: K-562 leukemia
KM12 colon = system: KM12 colon
LOX IMVI melanoma = system: LOX IMVI melanoma
M14 melanoma = system: M14 melanoma
MALME-3M melanoma = system: MALME-3M melanoma
MCF7 breast = system: MCF7 breast
MDA-MB-231 breast = system: MDA-MB-231 breast
MDA-MB-435 = system: MDA-MB-435
MDA-N = system: MDA-N
NCI-H23 lung = system: NCI-H23 lung
NCI-H522 lung = system: NCI-H522 lung
OVCAR-3 ovarian = system: OVCAR-3 ovarian
OVCAR-4 ovarian = system: OVCAR-4 ovarian
OVCAR-5 ovarian = system: OVCAR-5 ovarian
PC-3 prostate = system: PC-3 prostate
SF-268 CNS = system: SF-268 CNS
SF-295 CNS = system: SF-295 CNS
SF-539 CNS = system: SF-539 CNS
SK-MEL-28 melanoma = system: SK-MEL-28 melanoma
SK-MEL-5 melanoma = system: SK-MEL-5 melanoma
SK-OV-3 ovarian = system: SK-OV-3 ovarian
SNB-19 CNS = system: SNB-19 CNS
SNB-75 CNS = system: SNB-75 CNS
SR leukemia = system: SR leukemia
T-47D breast = system: T-47D breast
TK-10 renal = system: TK-10 renal
UACC-62 melanoma = system: UACC-62 melanoma
A498 renal = system: A498 renal
A549 NSCLC = system: A549 NSCLC
BT-549 breast = system: BT-549 breast
HCC-2998 colon = system: HCC-2998 colon
HCT-15 colon = system: HCT-15 colon
HT29 colon = system: HT29 colon
MOLT-4 leukemia = system: MOLT-4 leukemia
NCI-H226 lung = system: NCI-H226 lung
NCI-H460 lung = system: NCI-H460 lung
NCI/ADR-RES ovarian = system: NCI/ADR-RES ovarian
OVCAR-8 ovarian = system: OVCAR-8 ovarian
RPMI-8226 leukemia = system: RPMI-8226 leukemia
RXF 393 renal = system: RXF 393 renal
SK-MEL-2 melanoma = system: SK-MEL-2 melanoma
SN12C renal = system: SN12C renal
SW-620 colon = system: SW-620 colon
U251 CNS = system: U251 CNS
UACC-257 melanoma = system: UACC-257 melanoma
UO-31 renal = system: UO-31 renal

SMILES: O=C(C=P(c1ccccc1)(c1ccccc1)c1ccccc1)c1ccccc1-c1ccccc1C(=O)C=P(c1ccccc1)(c1ccccc1)c1ccccc1
- TGI (786-0 renal): 1.25 µM
- TGI (ACHN renal): 1.12 µM
- TGI (CAKI-1 renal): 1.1 µM
- TGI (CCRF-CEM leukemia): 0.843 µM
- TGI (COLO 205 colon): 0.0222 µM
- TGI (DU-145 prostate): 1.28 µM
- TGI (EKVX NSCLC): 0.91 µM
- TGI (HCT-116 colon): 0.259 µM
- TGI (HL-60(TB) leukemia): < 0.0195 µM
- TGI (HOP-62 NSCLC): 0.507 µM
- TGI (HOP-92 NSCLC): 0.0544 µM
- TGI (HS 578T breast): 0.317 µM
- TGI (IGROV1 ovarian): 1.36 µM
- TGI (K-562 leukemia): 0.0905 µM
- TGI (KM12 colon): 0.02 µM
- TGI (LOX IMVI melanoma): 0.0716 µM
- TGI (M14 melanoma): 1.42 µM
- TGI (MALME-3M melanoma): < 0.0208 µM
- TGI (MCF7 breast): 0.0395 µM
- TGI (MDA-MB-231 breast): 0.158 µM
- TGI (MDA-MB-435): 1.11 µM
- TGI (MDA-N): 1.1 µM
- TGI (NCI-H23 lung): 0.0899 µM
- TGI (NCI-H522 lung): 1.78 µM
- TGI (OVCAR-3 ovarian): < 0.012 µM
- TGI (OVCAR-4 ovarian): 1.63 µM
- TGI (OVCAR-5 ovarian): 0.585 µM
- TGI (PC-3 prostate): 1.23 µM
- TGI (SF-268 CNS): 1.61 µM
- TGI (SF-295 CNS): 0.0496 µM
- TGI (SF-539 CNS): 0.384 µM
- TGI (SK-MEL-28 melanoma): 2.03 µM
- TGI (SK-MEL-5 melanoma): 0.0263 µM
- TGI (SK-OV-3 ovarian): 0.366 µM
- TGI (SNB-19 CNS): 1.58 µM
- TGI (SNB-75 CNS): 0.115 µM
- TGI (SR leukemia): 0.0667 µM
- TGI (T-47D breast): 2.08 µM
- TGI (TK-10 renal): 0.182 µM
- TGI (UACC-62 melanoma): 1.33 µM

SMILES: CNC(=O)c1sc(-n2cnc3cc(OC)c(OC)cc32)cc1OCc1ccccc1C(F)(F)F
- GI50 (786-0 renal): > 25 µM
- TGI (786-0 renal): > 25 µM
- GI50 (A498 renal): 1.39 µM
- TGI (A498 renal): > 24 µM
- GI50 (A549 NSCLC): > 25 µM
- TGI (A549 NSCLC): > 25 µM
- GI50 (ACHN renal): > 25 µM
- TGI (ACHN renal): > 25 µM
- GI50 (BT-549 breast): > 25 µM
- TGI (BT-549 breast): > 25 µM
- GI50 (CAKI-1 renal): > 25 µM
- TGI (CAKI-1 renal): > 25 µM
- GI50 (CCRF-CEM leukemia): > 25 µM
- TGI (CCRF-CEM leukemia): > 25 µM
- GI50 (COLO 205 colon): > 25 µM
- TGI (COLO 205 colon): > 25 µM
- GI50 (DU-145 prostate): > 25 µM
- TGI (DU-145 prostate): > 25 µM
- GI50 (EKVX NSCLC): > 25 µM
- TGI (EKVX NSCLC): > 25 µM
- GI50 (HCC-2998 colon): > 25 µM
- TGI (HCC-2998 colon): > 25 µM
- GI50 (HCT-116 colon): > 25 µM
- TGI (HCT-116 colon): > 25 µM
- GI50 (HCT-15 colon): > 25 µM
- TGI (HCT-15 colon): > 25 µM
- GI50 (HL-60(TB) leukemia): > 15.8 µM
- TGI (HL-60(TB) leukemia): > 25 µM
- GI50 (HOP-62 NSCLC): > 25 µM
- TGI (HOP-62 NSCLC): > 25 µM
- GI50 (HOP-92 NSCLC): 2.2 µM
- TGI (HOP-92 NSCLC): > 25 µM
- GI50 (HS 578T breast): > 25 µM
- TGI (HS 578T breast): > 25 µM
- GI50 (HT29 colon): > 25 µM
- TGI (HT29 colon): > 25 µM
- GI50 (IGROV1 ovarian): > 25 µM
- TGI (IGROV1 ovarian): > 25 µM
- GI50 (K-562 leukemia): > 25 µM
- TGI (K-562 leukemia): > 25 µM
- GI50 (KM12 colon): > 25 µM
- TGI (KM12 colon): > 25 µM
- GI50 (LOX IMVI melanoma): > 25 µM
- TGI (LOX IMVI melanoma): > 25 µM
- GI50 (M14 melanoma): > 25 µM
- TGI (M14 melanoma): > 25 µM
- GI50 (MALME-3M melanoma): > 25 µM
- TGI (MALME-3M melanoma): > 25 µM
- GI50 (MCF7 breast): > 25 µM
- TGI (MCF7 breast): > 25 µM
- GI50 (MDA-MB-231 breast): 15.9 µM
- TGI (MDA-MB-231 breast): > 25 µM
- GI50 (MDA-MB-435): > 25 µM
- TGI (MDA-MB-435): > 25 µM
- GI50 (MOLT-4 leukemia): > 23.6 µM
- TGI (MOLT-4 leukemia): > 25 µM
- GI50 (NCI-H226 lung): 22.9 µM
- TGI (NCI-H226 lung): > 25 µM
- GI50 (NCI-H23 lung): > 25 µM
- TGI (NCI-H23 lung): > 25 µM
- GI50 (NCI-H460 lung): > 25 µM
- TGI (NCI-H460 lung): > 25 µM
- GI50 (NCI-H522 lung): > 25 µM
- TGI (NCI-H522 lung): > 25 µM
- GI50 (NCI/ADR-RES ovarian): 14.9 µM
- TGI (NCI/ADR-RES ovarian): > 25 µM
- GI50 (OVCAR-3 ovarian): > 25 µM
- TGI (OVCAR-3 ovarian): > 25 µM
- GI50 (OVCAR-4 ovarian): > 25 µM
- TGI (OVCAR-4 ovarian): > 25 µM
- GI50 (OVCAR-5 ovarian): > 25 µM
- TGI (OVCAR-5 ovarian): > 25 µM
- GI50 (OVCAR-8 ovarian): > 19.2 µM
- TGI (OVCAR-8 ovarian): > 25 µM
- GI50 (PC-3 prostate): > 25 µM
- TGI (PC-3 prostate): > 25 µM
- GI50 (RPMI-8226 leukemia): > 25 µM
- TGI (RPMI-8226 leukemia): > 25 µM
- GI50 (RXF 393 renal): > 25 µM
- TGI (RXF 393 renal): > 25 µM
- GI50 (SF-268 CNS): > 25 µM
- TGI (SF-268 CNS): > 25 µM
- GI50 (SF-295 CNS): > 21.4 µM
- TGI (SF-295 CNS): > 25 µM
- GI50 (SF-539 CNS): > 25 µM
- TGI (SF-539 CNS): > 25 µM
- GI50 (SK-MEL-2 melanoma): > 25 µM
- TGI (SK-MEL-2 melanoma): > 25 µM
- GI50 (SK-MEL-28 melanoma): > 25 µM
- TGI (SK-MEL-28 melanoma): > 25 µM
- GI50 (SK-MEL-5 melanoma): > 25 µM
- TGI (SK-MEL-5 melanoma): > 25 µM
- GI50 (SK-OV-3 ovarian): > 25 µM
- TGI (SK-OV-3 ovarian): > 25 µM
- GI50 (SN12C renal): > 25 µM
- TGI (SN12C renal): > 25 µM
- GI50 (SNB-19 CNS): > 23.6 µM
- TGI (SNB-19 CNS): > 25 µM
- GI50 (SNB-75 CNS): > 15.8 µM
- TGI (SNB-75 CNS): > 25 µM
- GI50 (SR leukemia): 9.49 µM
- TGI (SR leukemia): > 25 µM
- GI50 (SW-620 colon): > 25 µM
- TGI (SW-620 colon): > 25 µM
- GI50 (T-47D breast): 19.9 µM
- TGI (T-47D breast): > 25 µM
- GI50 (TK-10 renal): > 25 µM
- TGI (TK-10 renal): > 25 µM
- GI50 (U251 CNS): > 25 µM
- TGI (U251 CNS): > 25 µM
- GI50 (UACC-257 melanoma): > 25 µM
- TGI (UACC-257 melanoma): > 25 µM
- GI50 (UACC-62 melanoma): > 22.6 µM
- TGI (UACC-62 melanoma): > 25 µM
- GI50 (UO-31 renal): 12 µM
- TGI (UO-31 renal): > 25 µM
